In data set [1] the test system is NFκB. The experiment in a line: Western blot of NFκB in LPS-induced RAW264.7 cells. The class given is cell-based, murine. The note with it: LPS 1 μg/mL, 12 h; extract 5-100 μg/mL or SI 0.1-10 μM; dose-dependent manner. The method, then:
(§1) The RAW264.7 murine macrophage cell line was purchased from the Bioresource Collection and Research Center (BCRC, Taiwan). The cells were incubated at 37° C. in 5% CO2 in Dulbecco's modified Eagle's medium (DMEM; Gibco Inc., NY, USA) supplemented with 100 U/mL penicillin, 100 μg/mL sodium pyruvate and 10% fetal bovine serum (FBS; Gibco Inc.).
(§2) The cells were also treated with 0.01% DMSO as a vehicle control. The cells were seeded into 12-well plates at a density of 6×10^5 cells/well in 24 h then incubated with 0.1% BSA with serum-free medium 3 h, treated with […]
(§3) The concentrations of proteins from whole-cell lysates were determined by Bradford assay. Equal amounts of protein were separated by SDS-PAGE and transferred onto nitrocellulose membranes. […] With the use of horseradish peroxidase-conjugated secondary anti-rabbit or anti-mouse antibody, bound antibodies were detected by enhanced chemiluminescence. The signals were monitored using Western Lightning™ Plus-ECL (Perkin Elmer Life Sciences) and the PVDF membrane was exposed to Luminescent image analyzer LAS-3000 (Fujifilm, Minato, Tokyo, Japan). Acquired data were analyzed and compared the difference among treatments.
(In western blotting, separated proteins are transferred to a membrane and probed.)

Data set [2] relates to LPS-induced RAW 264.7 cells. The experiment in a line: Real-time PCR of inflammatory cytokine transcription in LPS-induced RAW 264.7 cells. The class given is cell-based, murine. To be noted: LPS 1 μg/mL; 5 μM SI (tested 0.1, 1, 5, 10 μM). The method, then:
as §1
The cells were also treated with 0.01% DMSO as a vehicle control. The cells were seeded into 12-well plates at a density of 6×10^5 cells/well in 24 h then incubated with 0.1% BSA with serum-free medium 3 h, treated with different concentrations of Spiranthes sinensis extract or SI then incubated in the presence of LPS (1 μg/mL) for 4 h.
Total RNA was prepared from freshly harvested RAW 264.7 cells and was isolated using Trizol extraction. RNA samples were frozen at −80° C. until analyzed. cDNA was then made using an M-MLV RT kit (Invitrogen, Carlsbad, Calif.) according to the manufacturer's protocol. The expression of selected cytokine and related genes in mouse tissue and in RAW264.7 cells exposed to the present Spiranthes sinensis extract was determined by the SensiFAST SYBR No-ROX Kit (BIOLINE, London, UK), as described previously. PCR cycling conditions for TNF-Alpha included a 95° C. heating step for 2 min at the beginning of every run. […] In order to quantify expression represented by each of the PCR products, an internal reference by β-actin.
(In general: Quantitative PCR measures a nucleic acid by following its amplification.)

Data set [3] deals with CFA-induced inflammation mice. The experiment in a line: CFA-induced paw inflammation in mice, swelling index. The class given is in vivo, C57BL/6 mice.
Data set [4] deals with p-ERK. As to the kind of experiment: Western blot of phosphorylated ERK in LPS-induced RAW264.7 cells. The class given is cell-based, murine. The note with it: LPS 1 μg/mL, 12 h; extract 5-100 μg/mL or SI 0.1-10 μM; dose-dependent manner. The method, then: as §1, §2, §3
Data set [5] has as its system COX-2. As to the kind of experiment: Western blot of COX-2 in LPS-induced RAW264.7 cells. The class given is cell-based, murine. The note with it: LPS 1 μg/mL, 12 h; extract 5-100 μg/mL or SI 0.1-10 μM; dose-dependent manner. The method, then:
as §1, §2, §3

Data set [6] deals with RAW 264.7 cells. As to the kind of experiment: MTT cell viability of RAW264.7 cells (Example 2). The note with it: extract 5, 20, 50, 100 μg/mL or sinetirucallol 0.1, 1, 5, 10 μM for 24 h. The class given is cell-based, murine. Here is the method: as §1
In order to examine the bio-compatibility of the extract of the present disclosed composition, a MTT assay (3-(4,5-dimethylthiazol-2-yl)-2,5-diphenyltetrazolium bromide (MTT, Invitrogen), a colorimetric based assay) was performed.
Briefly, 8×10^3 of cells per well were seeded in 96-well plates and were incubated in 5% CO2 at 37° C. for overnight. Cells were treated different concentrations (5, 20, 50, and 100 μg/mL) of Spiranthes sinensis extract for 24 h, after incubation 20 μL (5 mg/mL) of MTT solution was added per well and further incubated for 4 h. The media was removed, and formazan was solubilized by adding 100 μl/well of DMSO (Sigma-Aldrich) and OD was measured at 570 nm using a microplate reader (ELISA reader, Thermo Labsystems). Percentage of viable cells was estimated by comparing with untreated control cells. The average absorbance value of the control cells was taken as 100% viability.

The subject of data set [7] is LPS-induced RAW264.7 cells. As to the kind of experiment: Nitrite quantification of NO production in LPS-induced RAW264.7 cells. The class given is cell-based, murine. To be noted: LPS 1 μg/mL 12 h; extract 5, 20, 50, 100 μg/mL or SI 0.1, 1, 5, 10 μM; dose-dependent manner. Here is the method: as §1, §2
NO production from activated RAW 264.7 cells was determined by measuring the amount of nitrite, a stable oxidation product of NO. An aliquot of the conditioned medium was mixed with an equal volume of 1% sulfanilamide in water and 0.1% N-1-naphthylethylenediamine dihydrochloride in 5% phosphoric acid. The absorbance was determined at 550 nm. Sodium nitrite, diluted in culture media at concentrations of 10-100 μM, was used to generate a standard curve.

The structures appear in SMILES notation.

For the compound `C[C@H](CC[C@@H]1CC1(C)C)[C@H]1CC[C@@]2(C)C3CCC4C(C)(C)[C@H](O)CC[C@@]4(C)C3=CC[C@]12C` (stereo partly drawn) [sinetirucallol], the “LPS-induced expression of NFκB” value in data set [1] was “diminished”. For the same compound, the “inhibition of inflammatory cytokine transcription” value in data set [2] is listed as “better inhibition”. Also, the “anti-inflammatory effect, low versus high dose” value in data set [3] (0.44 μg/kg SI compared with 4.4 μg/kg SI) was “better effect than that of 4.4 μg/kg SI”. For the same compound, the “foot swelling recovery compared with 0.3 mg/kg triamcinolone” value in data set [3] (SI group (4.4, 2.2, 0.44 μg/kg i.p.)) is listed as “less foot swelling recovery than that of 0.3 mg/kg triamcinolone”. In data set [3] (intraperitoneal injection 3 times Day 0 to Day 2, extract 0.5, 0.3, 0.06 mg/kg b.w, SI 4.4, 2.2, 0.44 μg/kg, compared with CFA group), the “anti-inflammatory effect (swelling index of foot)” value is recorded as “much better than that of Spiranthes sinensis extract”. Moreover, the “LPS-induced phosphorylation of ERK” value in data set [4] is given as “diminished”. Moreover, in data set [5], the “LPS-induced expression of COX-2” value is recorded as “diminished”. Moreover, the “Cell viability (MTT assay)” value in data set [6] is “not affected”. The “NO production (nitrite)” value in data set [7] is given as “inhibitory effect”.

These data come from patent US11213560B2, “Method of promoting wound healing with sinetirucallol” (NATIONAL DONG HWA UNIVERSITY, priority 2015, dated 2022).
